Results as given in patent US10647720B2 (Asana Biosciences, LLC, priority 2011, dated 2020).

Key:
RBL2H3 cells = assay: Degranulation assay: β-hexosaminidase release during immune complex mediated degranulation; format: cell-based, Rat
Method: The objective of this assay was to examine by Fluorescence method the effect of compounds on β-hexosaminidase release during immune complex mediated degranulation in RBL2H3 cells. Compounds were tested for their ability to inhibit the ability of this immune complex to mediate β-hexosaminidase release, in an enzyme assay with p-nitrophenyl-β-D-glucosaminide as substrate. […] Emission 460 nm). RBL2H3 cells were maintained in MEM complete media containing 10% FBS at 70%-80% confluence in a mammalian cell culture CO2 incubator with 5% CO2 at 37° C. 2×10^5 cells/well were plated in 1 mL of complete media and incubated for 5 hours for cell attachment. Complete media was replaced with 1 mL of serum free MEM media containing 1.2 μg/mL of anti-DNP rat IgE as sensitizing agent and further incubated overnight with 5% CO2 at 37° C. […] Cells were further stimulated with 5 μg/mL of DNP-BSA for 60 minutes. Plates were centrifuged for 5 minutes at 1000 rpm and 25 μL of culture supernatant was transferred from each assay well into a 96 well black coated plate. 25 μL β-NAG substrate was added to this mixture and incubated at room temperature for 30 minutes. The reaction was terminated with 100 μL of stop solution and fluorescence was monitored. (Excitation 355 nm; Emission 460 nm) See, Sanderson, (2010), Cellular Immunology, 262(1): 28-34 and Silverman, (2006) MCB, 26(5):1826-1838, which are incorporated herein by reference. The % release of β-Hexosaminidase for the test compound was calculated using the following formula: RBL2H3 cells were maintained in MEM complete media containing 10% FBS at 70-80% confluence in a mammalian cell culture CO2 incubator with 5% CO2 at 37° C. 5×10^4 cells/well were plated in 200 μL of complete media containing 0.3 μg/mL of anti-DNP rat IgE as sensitizing agent for 24 hours at 37° C. & 5% CO2. The following day, cells were washed twice with PIPES buffer for 10 minutes at 37° C. and replenished with serum free MEM media. […] After incubation with substrate, 150 μL of stop solution was added and fluorescence was monitored. […]

[1] = molecular target: Syk (356-635 amino acids)-catalytic domain (Homo sapiens (Human), UniProt P43405); assay: Inhibition of enzymatic Syk kinase activity (radiometric); format: biochemical
Text: The objective of this assay was to examine by radiometric method the ability of compounds to inhibit Syk kinase enzyme. Syk is capable of phosphorylating substrates such as VAV, LAT, SLP-76, which in turn activate MAPK, PLCγ signaling pathways. […] This in vitro assay tests the ability of syk to phosphorylate a substrate peptide in the presence of ATP. By using a radio-labeled form of ATP, it is possible to measure the amount of phosphorylation of the substrate. The enzyme transfers a radio-labeled phosphate group from γ32 P labeled ATP to pG4T. Briefly the enzyme was incubated with substrate, radio-labeled & cold ATP and substrate in buffer with or without compounds. At the end of the reaction, the reaction mixture was transferred on to a Multiscreen filter plate and unreacted γ^32P ATP was washed off. The filter plate was dried and the radioactivity was measured on a scintillation counter to estimate the incorporated radioactivity on the substrate. The percent inhibition of activity of the enzyme was calculated by comparing counts in the presence and absence of compounds. […] Microscint-O® reagent (100 μL, Perkin Elmer) was added to each well, the plate was sealed with Topseal®-A microplates and incubated for 10 minutes at room temperature at very low speed on rocker and the plate was read in the Topcount® NXL instrument.

JAK2 = JAK2 (Homo sapiens (Human), UniProt O60674); assay: Inhibition of enzymatic JAK2 kinase activity (TR-FRET); format: biochemical
Sequence of JAK2 (O60674 808-1132): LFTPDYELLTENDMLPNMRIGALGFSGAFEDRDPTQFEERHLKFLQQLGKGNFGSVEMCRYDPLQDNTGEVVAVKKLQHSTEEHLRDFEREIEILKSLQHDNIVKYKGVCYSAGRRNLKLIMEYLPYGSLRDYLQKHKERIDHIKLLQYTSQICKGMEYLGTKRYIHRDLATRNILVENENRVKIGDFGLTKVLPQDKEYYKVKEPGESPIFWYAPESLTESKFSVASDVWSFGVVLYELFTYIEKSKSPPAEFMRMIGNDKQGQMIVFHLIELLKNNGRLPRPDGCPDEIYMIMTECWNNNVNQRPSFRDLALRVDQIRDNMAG
Text: The objective of this assay was to screen compounds in a Time-resolved fluorescence resonance energy transfer (TR-FRET) Enzymatic assay method for their potential to inhibit JAK2 (Janus kinase) activity.
TR-FRET assays are homogeneous proximity assays where Eu-labeled antiphosphotyrosine antibody binds to the phosphorylated substrates labeled with Ulight fluorescence acceptor. Eu can transfer energy to Ulight accepter in the complex and the interaction of two dye-labeled binding partners is detected by the energy transfer between a donor and an acceptor dye, and the subsequent light emission by the acceptor dye. The intensity of the light emission is proportional to the level of Ulight peptide phosphorylation.
Two μL of 10% DMSO in blank, substrate control and positive control wells and 2 μL of test compound in test wells was added. Thirteen μL of assay buffer in blank and substrate control wells and 13 μL of Enzyme buffer mix in positive and test wells was added. The reaction mixture was incubated for 30 minutes at RT on a plate shaker. […] The reaction plate was incubated for 60 minutes at RT on a plate shaker. The reaction was stopped by adding 40 mM EDTA (10 μL) in buffer. Ten μL of antibody was added to all the wells. The plate was read in a Wallac® 1420 Multilabel Counter Victor 3 instrument (Ex: 340 nm Em: 615 & 665 nm) The following calculations were made:
F@ 665 Value-Buffer blank […]

[2] = test system: Collagen Induced Arthritis (CIA) in female Lewis rats; assay: In vivo chronic study: Collagen Induced Arthritis (CIA); set-up: species or system rat; settings: 0.5 mg/Kg
Method: Female Lewis rats (8 per group, 6-8 weeks old) were immunized on day 1 with type II collagen (Immunization grade Bovine type II; Chondrex; Cat #20021) emulsified with Complete Freund's Adjuvant (Sigma; Cat # F5881) at a final concentration of 1.2 mg/mL). For the initial immunization, the animals were injected at the base of the tail with 300 μg of the cII (0.25 mL/rat). A booster injection of the same type II collagen emulsified with Incomplete Freund's Adjuvant (Sigma, Cat #F5506) (0.25 mL/rat) was given to the animals on day 8 at the base of the tail (100 μg). The final cII concentration in the booster was […]. […]
Edema: Paw volumes are measured by Plethysmometry for the animals before induction of CIA (Basal readings) and on Day 1, 3, 6 and 9 of dosing period. Both hind paw volumes were measured and edema was calculated by subtracting from the basal mean.
Arthritic score: Animals were scored for the symptoms of arthritis every day starting from Day of onset of disease till the end of the study. Both the hind paws were scored and the total scores were averaged and compared with control. […]
The percent inhibition of Edema was calculated with respect to control by the formula: […]
The percent inhibition of Arthritic score was calculated with respect to control by the formula: […]

## O=c1[nH]ncc2nc(N3CCCCCC3)nc(Nc3ccc(N4CCN(CCO)CC4)cc3)c12 [Example 190, 2-(azepan-1-yl)-4-((4-(4-(2-hydroxyethyl)piperazin-1-yl)-phenyl)amino)pyrimido[4,5-d]-pyridazin-5(6H)-one]
RBL2H3 cells; Rattus norvegicus, RBL-2H3, 1 μM, Assay Protocol B (96 well format)
  inhibition at 1 µM: 83%
RBL2H3 cells; Rattus norvegicus, RBL-2H3, Assay Protocol B (96 well format)
  EC50: 21 nM
[1]
  IC50: < 10 nM
JAK2
  IC50: < 10 nM

## N=Cc1nc(N2CCCCCC2)nc(Nc2ccc(N3CCCC(CC(=O)O)C3)cc2)c1C(N)=O (stereo not shown) [Example 232]
RBL2H3 cells; 1 μM, Assay Protocol B (96 well format)
  Degranulation % inhibition at 1 μM: 0%

## CN(Cc1cnc2nc(N)nc(N)c2n1)c1ccc(C(=O)N[C@@H](CCC(=O)O)C(=O)O)cc1 [Methotrexate, methotrexate]
[2]; Day 9 of dosing
  Percent inhibition of Edema (Day 9 of dosing): 6%
[2]; Day 10 of dosing
  Percent inhibition of Arthritic score (Day 10 of dosing): 15%
